For one series, the system named is Male Sprague Dawley rats. The note with it: rat, in vivo.
A short description of series [1]: pharmacokinetics, blood content and blood brain barrier penetration after sc administration. Conditions: rats, 2.0 mg/kg sc.
The conditions of series [2]: smoking cessation; cited from earlier work.

“Also recorded” adds a separate entry of the source.

Method for Male Sprague Dawley rats: Male Sprague Dawley rats obtained from Charles River (Portage, Mich.) and weighing 200-225 g at their arrival were used in this study. Rats were housed in groups of two in a room with a reverse 12 h light/12 h dark cycle (lights off at 07:30 AM). All experiments were conducted during the dark phase of the cycle. Animals were acclimatized for 7 days with water and chow (Teklad Diets, Madison, Wis.) and handled for 3 times before the experiments were started. Throughout all operant procedures, rats were food restricted (received 20 g of chow daily) with water freely accessible.
5 was dissolved in a vehicle of 0.9% saline and injected subcutaneously at doses of (0.0, 0.3, 1.0 mg/kg). The injection volume was 1 ml/kg. […] (−)-Nicotine hydrogen tartrate salt and alcohol were purchased from Sigma (St. Louis, Mo.). Alcohol was diluted to a concentration of 10% v/v in water and made available orally. Nicotine solution for i.v. injection (30 micrograms/kg/0.1 ml infusion) was obtained by dissolving the salt in 0.9% saline and the pH adjusted to 7.0-7.4 with 3 M sodium hydroxide. Nicotine self-administration dose is reported as free base concentration.
The self-administration boxes consisted of operant conditioning chambers (Med Associates, Inc., St. Albans, Vt.) enclosed in lit, sound attenuating, ventilated environmental cubicles. […]

As for `C[C@H]1CNC(=N)N1CCc1cccnc1` [Compound 5, (S)-5-Methyl-1-(2-(pyridin-3-yl)ethyl)imidazolidin-2-imine], in the series on Male Sprague Dawley rats, the “nicotine self-administration analysed in 30-min intervals” value is listed as “decreased nicotine self-administration during the first 30 min but not during the remaining 90-min period; also recorded: reducing nicotine self-administration only in the first 30 min”. For the same compound, the “time to maximal concentration in blood and brain” value in series [1] is at most 10 min.

Consider `c1cnc2cc3c(cc2n1)[C@@H]1CNC[C@H]3C1` [varenicline], for which, in series [2], the “cessation rates in most clinical trials” value was 23-40%.

Regarding `CC(NC(C)(C)C)C(=O)c1cccc(Cl)c1` (stereo not shown) [bupropion], in series [2], the “cessation rates in most clinical trials” value was 15-25%.

These data come from patent US20200179361A1, “COMPOSITIONS, METHODS OF USE, AND METHODS OF TREATMENT” (TORREY PINES INSTITUTE FOR MOLECULAR STUDIES, priority 2017, published 2020).
